# What was measured:
# Test in all cases: HMF sulfoconjugation assay
# Format in all cases: biochemical
# hSULT1A3 = target: T1, hSULT1A3 (Homo sapiens, UniProt P0DMM9)
# T1 construct: made in house; host or cells: Salmonella typhimurium TA1538 (cytosolic fraction, not purified)
# Outline: (§1)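 HMF at different concentrations was sulfated by SULT-expressing S. typhimurium cytosol with 50 µM PAPS. Incubation ran 30 min at 37 °C under linear conditions, and SMF was quantified by UPLC-MS/MS.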
# hSULT1B1 = target: T2, hSULT1B1 (Homo sapiens, UniProt O43704)
# T2 construct: made in house; host or cells: Salmonella typhimurium TA1538 (cytosolic fraction, not purified)
# Outline: as §1
# hSULT2B1b = target: T3, hSULT2B1b (Homo sapiens, UniProt O00204)
# T3 construct: made in house; host or cells: Salmonella typhimurium TA1538 (cytosolic fraction, not purified)
# T3 sequence (O00204 1-365): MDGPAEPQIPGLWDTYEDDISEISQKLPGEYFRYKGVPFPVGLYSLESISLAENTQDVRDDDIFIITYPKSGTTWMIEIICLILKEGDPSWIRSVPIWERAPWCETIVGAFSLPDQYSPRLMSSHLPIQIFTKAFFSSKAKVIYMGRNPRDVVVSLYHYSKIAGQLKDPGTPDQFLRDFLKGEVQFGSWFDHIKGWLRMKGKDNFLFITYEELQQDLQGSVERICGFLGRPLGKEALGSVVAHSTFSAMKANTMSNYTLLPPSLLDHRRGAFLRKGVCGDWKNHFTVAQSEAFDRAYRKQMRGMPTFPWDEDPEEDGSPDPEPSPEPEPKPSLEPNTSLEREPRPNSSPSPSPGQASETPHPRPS
# Outline: as §1
# mSult1c2 = target: T4, mSult1c2 (Mus musculus, UniProt Q9D939)
# T4 construct: made in house; host or cells: Salmonella typhimurium TA1538 (cytosolic fraction, enzyme not purified)
# Outline: as §1
# mSult1e1 = target: T5, mSult1e1 (Mus musculus, UniProt P49891)
# T5 construct: made in house; host or cells: Salmonella typhimurium TA1538 (cytosolic fraction, enzyme not purified)
# T5 sequence (P49891 1-295): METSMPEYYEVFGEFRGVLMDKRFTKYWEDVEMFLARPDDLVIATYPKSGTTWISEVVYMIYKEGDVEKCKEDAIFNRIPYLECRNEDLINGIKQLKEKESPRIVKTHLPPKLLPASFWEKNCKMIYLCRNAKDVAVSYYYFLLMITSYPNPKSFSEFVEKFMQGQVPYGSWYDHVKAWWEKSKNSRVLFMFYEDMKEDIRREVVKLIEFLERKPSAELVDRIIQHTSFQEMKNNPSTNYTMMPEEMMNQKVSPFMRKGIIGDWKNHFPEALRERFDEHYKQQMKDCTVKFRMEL
# Outline: as §1
# rSult1c2 = target: T6, rSult1c2 (Rattus norvegicus, UniProt Q9WUW8)
# T6 construct: made in house; host or cells: Salmonella typhimurium TA1538 (cytosolic fraction, enzyme not purified)
# Outline: as §1
# [1] = HMF sulfoconjugation, Michaelis-Menten fit
# T4 sequence (Q9D939 whole entry): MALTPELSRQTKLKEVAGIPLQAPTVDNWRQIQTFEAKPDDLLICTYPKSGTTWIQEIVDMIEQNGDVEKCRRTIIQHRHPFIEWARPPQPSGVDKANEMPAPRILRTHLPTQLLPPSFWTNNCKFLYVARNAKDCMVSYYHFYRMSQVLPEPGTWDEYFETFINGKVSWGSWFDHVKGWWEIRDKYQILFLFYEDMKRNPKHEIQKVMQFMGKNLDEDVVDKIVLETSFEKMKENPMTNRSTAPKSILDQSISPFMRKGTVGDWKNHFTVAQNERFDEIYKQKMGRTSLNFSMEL
# T6 sequence (Q9WUW8 whole entry): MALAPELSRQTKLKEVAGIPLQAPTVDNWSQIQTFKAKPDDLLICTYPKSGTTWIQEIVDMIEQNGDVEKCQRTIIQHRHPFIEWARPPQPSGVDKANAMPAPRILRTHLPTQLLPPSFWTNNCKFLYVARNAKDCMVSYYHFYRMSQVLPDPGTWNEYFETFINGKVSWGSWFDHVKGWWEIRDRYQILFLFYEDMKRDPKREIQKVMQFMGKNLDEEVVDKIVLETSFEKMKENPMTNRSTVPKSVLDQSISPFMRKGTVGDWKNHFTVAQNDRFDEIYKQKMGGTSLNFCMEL
# T1 sequence (P0DMM9 whole entry): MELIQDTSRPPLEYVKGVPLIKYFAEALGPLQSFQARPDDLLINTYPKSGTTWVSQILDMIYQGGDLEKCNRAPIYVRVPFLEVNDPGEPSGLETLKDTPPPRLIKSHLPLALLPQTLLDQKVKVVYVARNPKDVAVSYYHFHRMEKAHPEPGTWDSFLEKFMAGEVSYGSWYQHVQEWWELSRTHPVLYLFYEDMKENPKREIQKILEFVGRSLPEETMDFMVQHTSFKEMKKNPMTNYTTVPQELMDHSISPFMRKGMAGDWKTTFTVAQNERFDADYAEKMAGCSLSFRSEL
# T2 sequence (O43704 whole entry): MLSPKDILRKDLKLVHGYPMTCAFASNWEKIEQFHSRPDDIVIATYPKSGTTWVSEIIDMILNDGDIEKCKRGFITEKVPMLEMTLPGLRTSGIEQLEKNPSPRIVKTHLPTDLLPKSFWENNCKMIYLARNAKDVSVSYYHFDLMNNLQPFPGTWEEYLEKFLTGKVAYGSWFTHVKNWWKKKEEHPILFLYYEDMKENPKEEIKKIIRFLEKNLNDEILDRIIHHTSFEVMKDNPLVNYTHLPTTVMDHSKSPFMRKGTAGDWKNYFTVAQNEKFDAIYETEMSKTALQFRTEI
compound,measurement,setting,value
"O=Cc1ccc(CO)o1 [HMF, 5-Hydroxymethylfurfural]",Rate of sulfoconjugation,hSULT1A3; 0.1 mM HMF,1.2 ± 0.1 pmol/mg/min
same,Rate of sulfoconjugation,hSULT1A3; 1 mM HMF,12.1 ± 1.5 pmol/mg/min
same,Rate of sulfoconjugation,hSULT1A3; 10 mM HMF,117 ± 12 pmol/mg/min
same,Rate of sulfoconjugation,hSULT1A3; 100 mM HMF,406 ± 39 pmol/mg/min
same,K M,hSULT1A3; [1],16.7 ± 1.8 mM
same,Rate of sulfoconjugation,hSULT1B1; 0.1 mM HMF,2.0 ± 0.5 pmol/mg/min
same,Rate of sulfoconjugation,hSULT1B1; 1 mM HMF,22.2 ± 5.2 pmol/mg/min
same,Rate of sulfoconjugation,hSULT1B1; 10 mM HMF,133 ± 28 pmol/mg/min
same,Rate of sulfoconjugation,hSULT1B1; 100 mM HMF,272 ± 49 pmol/mg/min
same,K M,hSULT1B1; [1],13.3 ± 0.3 mM
same,Rate of sulfoconjugation,hSULT2B1b; 0.1 mM HMF,<0.5 pmol/mg/min
same,Rate of sulfoconjugation,hSULT2B1b; 1 mM HMF,<0.5 pmol/mg/min
same,Rate of sulfoconjugation,hSULT2B1b; 10 mM HMF,<0.5 pmol/mg/min
same,Rate of sulfoconjugation,hSULT2B1b; 100 mM HMF,<0.5 pmol/mg/min
same,Rate of sulfoconjugation,mSult1c2; 0.1 mM HMF,<0.5 pmol/mg/min
same,Rate of sulfoconjugation,mSult1c2; 1 mM HMF,2.0 ± 0.2 pmol/mg/min
same,Rate of sulfoconjugation,mSult1c2; 10 mM HMF,16.2 ± 1.1 pmol/mg/min
same,Rate of sulfoconjugation,mSult1c2; 100 mM HMF,92.4 ± 6.7 pmol/mg/min
same,Rate of sulfoconjugation,mSult1e1; 0.1 mM HMF,3.7 ± 0.3 pmol/mg/min
same,Rate of sulfoconjugation,mSult1e1; 1 mM HMF,35.5 ± 2.6 pmol/mg/min
same,Rate of sulfoconjugation,mSult1e1; 10 mM HMF,226 ± 9 pmol/mg/min
same,Rate of sulfoconjugation,mSult1e1; 100 mM HMF,534 ± 52 pmol/mg/min
same,Rate of sulfoconjugation,rSult1c2; 0.1 mM HMF,<0.5 pmol/mg/min
same,Rate of sulfoconjugation,rSult1c2; 1 mM HMF,<0.5 pmol/mg/min
same,Rate of sulfoconjugation,rSult1c2; 10 mM HMF,2.3 ± 0.2 pmol/mg/min
same,Rate of sulfoconjugation,rSult1c2; 100 mM HMF,15.0 ± 1.1 pmol/mg/min
